This is an account of results in patent US20070243262A1, “Stable S-nitrosothiol formulations” (priority 2005, published 2007).

Data set [1] is described as follows: GSNO API (powder) stability by HPLC. The class given is physicochemical. The note with it: for GSNO % w/w at 5° C. / GSNO % w/w at −20° C. / GSNO % w/w at −80° C.: GSNO powder, HPLC. The procedure: GSNO powder was tested for stability at various temperatures over a three-month period of time, and each formulation was tested for stability at various temperatures over a six month period of time. Stability was determined by HPLC analysis at various times throughout the test period.

For data set [2] the following is noted: cited from earlier work.

Consider `N[C@@H](CCC(=O)N[C@@H](CSN=O)C(=O)NCC(=O)O)C(=O)O` [GSNO, S-nitrosoglutathione], for which the “GSNO % w/w at 5° C.” value in data set [1] (0 elapsed days) was 92.7 % w/w; in data set [1] (14 elapsed days) it was 84.6 % w/w; in data set [1] (30 elapsed days), 89.2 % w/w; in data set [1] (90 elapsed days), 80.0 % w/w. Further, the “GSNO % w/w at −20° C.” value is given as 92.7 % w/w in data set [1] (0 elapsed days), 90.6 % w/w in data set [1] (14 elapsed days), 91.1 % w/w in data set [1] (30 elapsed days) and 89.7 % w/w in data set [1] (90 elapsed days). The “GSNO % w/w at −80° C.” value in data set [1] (0 elapsed days) came out at 92.7 % w/w; in data set [1] (30 elapsed days), 91.4 % w/w; in data set [1] (90 elapsed days) it was 91.9 % w/w. For the same compound, in data set [1] (temperatures above 0° C.), the “stability of GSNO powder (in words)” value is “rapidly degrades”. Also, in data set [2], the “stability in aqueous solutions” value is reported as “decomposing in hours”.
